Series [1] has as its system Gram-positive bacteria. Kind of series: ability to inhibit the growth of Gram-positive bacteria (summary statement). It counts as cell-based. To be noted: summary in words. On the procedure: (§1) The minimum inhibitory concentration (MIC) of the FA-118O A, A1, B or B1 was determined by the agar dilution method, and the results are indicated in Table 5 below.
Series [2] deals with Salmonella typhimurium IFO 12529. Kind of series: minimum inhibitory concentration (MIC) by the agar dilution method, Salmonella typhimurium IFO 12529. It counts as cell-based. Conditions: Brain heart infusion agar, 18 hrs after inoculation. On the procedure: as §1
(§2) (1) Medium: Brain heart infusion agar
(§3) (2) Determined: 18 hrs after inoculation

For series [3], the system named is Bacillus subtilis 45 T. Kind of series: minimum inhibitory concentration (MIC) by the agar dilution method, Bacillus subtilis 45 T. It counts as cell-based. To be noted: Brain heart infusion agar, 18 hrs after inoculation. As for the experimental part: as §1, §2, §3
Series [4] relates to Staphylococcus aureus 209 P. Kind of series: minimum inhibitory concentration (MIC) by the agar dilution method, Staphylococcus aureus 209 P. It counts as cell-based. To be noted: Brain heart infusion agar, 18 hrs after inoculation. As for the experimental part: as §1, §2, §3
The test system of series [5] is Escherichia coli NIHJ. Kind of series: minimum inhibitory concentration (MIC) by the agar dilution method, Escherichia coli NIHJ. It counts as cell-based. To be noted: Brain heart infusion agar, 18 hrs after inoculation. As for the experimental part: as §1, §2, §3
Series [6] relates to Escherichia coli P3478. Description: minimum inhibitory concentration (MIC) by the agar dilution method, Escherichia coli P3478. It counts as cell-based. To be noted: Brain heart infusion agar, 18 hrs after inoculation. As for the experimental part: as §1, §2, §3
For series [7], the system named is Pseudomonas aeruginosa H. Kind of series: minimum inhibitory concentration (MIC) by the agar dilution method, Pseudomonas aeruginosa H. It counts as cell-based. Conditions: Brain heart infusion agar, 18 hrs after inoculation. As for the experimental part: as §1, §2, §3
Series [8] has as its system Yoshida rat sarcoma. Description: growth inhibitory effect on Yoshida rat sarcoma cells. It counts as cell-based. Conditions: for IC50: Rattus norvegicus, YOSHIDA, read-out: Growth Inhibitory Effect IC50. On the procedure: (§4) The tumor cell suspension was prepared from cells taken from ascites of rats to which 1×10^6 cells of Yoshida rat sarcoma had been inoculated before 3 to 5 days. The ascites was diluted with a medium which was constituted from 80 to 90% (v/v) Fischer's solution containing 20 to 10% (v/v) desensitized horse serum. One half milliliter of the cell suspension containing 5~20×10^4 cells thus prepared was placed in a small test tube. A substance to be tested was dissolved and diluted with the same medium and 0.5 ml of the diluted solution was added to the cell suspension. To the control tube was added 0.5 ml of the medium. 2 to 5 tubes were used for each experimental units. They were incubated statically at 37° C. for 2 to 3 days. After the incubation, growth was measured by observing the quantity of precipitated cells on the bottom of the test tube with the naked eyes. Growth inhibitory effect of a substance was expressed by the concentration pointing 50 percent growth of the control growth.
IC50 : The concentration pointing 50% growth of the control growth.

Series [9] deals with Bacillus subtilis PCI 219. Description: minimum inhibitory concentration (MIC) by the agar dilution method, Bacillus subtilis PCI 219. Conditions: Brain heart infusion agar, 18 hrs after inoculation. It counts as cell-based. On the procedure: as §1, §2, §3
Series [10] has as its system Staphylococcus aureus. Description: minimum inhibitory concentration (MIC) by the agar dilution method, Staphylococcus aureus. It counts as cell-based. Conditions: Brain heart infusion agar, 18 hrs after inoculation. On the procedure:
as §1, §2, §3

The nature of series [11]: Solubility. It counts as physicochemical.
Series [12] deals with Serratia marcescens IFO 12648. Description: minimum inhibitory concentration (MIC) by the agar dilution method, Serratia marcescens IFO 12648. It counts as cell-based. To be noted: 18 hrs after inoculation. As for the experimental part: as §1, §2, §3
Series [13] relates to Bacillus subtilis 17 A. Description: minimum inhibitory concentration (MIC) by the agar dilution method, Bacillus subtilis 17 A. It counts as cell-based. Conditions: Brain heart infusion agar, 18 hrs after inoculation. On the procedure:
as §1, §2, §3

For series [14], the system named is Escherichia coli W3110. Description: minimum inhibitory concentration (MIC) by the agar dilution method, Escherichia coli W3110. It counts as cell-based. Conditions: Brain heart infusion agar, 18 hrs after inoculation. As for the experimental part: as §1, §2, §3
For series [15], the system named is Candida albicans. Description: minimum inhibitory concentration (MIC) by the agar dilution method, Candida albicans. It counts as cell-based. Conditions: Brain heart infusion agar, 18 hrs after inoculation. As for the experimental part:
as §1, §2, §3

Series [16] concerns Bacillus cereus IAM 1729. Description: minimum inhibitory concentration (MIC) by the agar dilution method, Bacillus cereus IAM 1729. It counts as cell-based. To be noted: IAM1729, Brain heart infusion agar, 18 hrs after inoculation. As for the experimental part: as §1, §2, §3
The test system of series [17] is tumor. Kind of series: antitumor activity (summary statement). To be noted: summary in words. As for the experimental part: (§5) The test was conducted in accordance with the method described in Cancer Chemotherapy Reports, Part 3, Vol. 3, No. 2, p. 9, September 1972. Mice inoculated intraperitoneally with 1×10^6 cells of P-388 were administered with the test compounds daily on days 1 to 5. The activity (T/C) of the test compounds is represented by the ratio of the median survival time of the treated group to that of the control group.
as §4

The test system of series [18] is Klebsiella pneumoniae IFO 3512. Kind of series: minimum inhibitory concentration (MIC) by the agar dilution method, Klebsiella pneumoniae IFO 3512. To be noted: 18 hrs after inoculation. It counts as cell-based. On the procedure: as §1, §2, §3
In series [19] the test system is P-388 Mice Leukemia. Kind of series: therapeutic effect against P-388 Mice Leukemia. It counts as in vivo. Conditions: daily on days 1 to 5, 1×10^6 P-388 cells intraperitoneally. As for the experimental part:
as §5

Where [20] appears, read: Salmonella enterica, read-out: MIC.
[21] abbreviates: concentration pointing 50% growth of the control growth, 37° C., 2 to 3 days, Fischer's solution with horse serum.
Where [22] appears, read: Bacillus subtilis, PCI219, 18 h, read-out: MIC.
Where [23] appears, read: IFO12648, Brain heart infusion agar, read-out: MIC.
Where [24] appears, read: IFO3512, Brain heart infusion agar, read-out: MIC.

≈ marks a conversion by molar mass, not a printed value. Counter-ions that a name gives are not always drawn. Like-named read-outs stand apart in the source and are kept apart here. Bounds are passed on as bounds.

In the case of `CC(=O)C1(O)Cc2c(O)c3c(c(O)c2C(OC2CC(N)C(OC(CC(C)O)OC(C)CO)C(C)O2)C1)C(=O)c1c(O)cccc1C3=O` (centres unmarked) [FA-1180 A], in series [1], the “ability to inhibit the growth of Gram-positive bacteria” value (from here on “ability to inhibit the growth”) is given as “strong ability to inhibit the growth of Gram-positive bacteria”. For the same compound, the MIC in series [2] (setting [20]) is greater than 100 µg/mL; in [3] (read-out: MIC), less than 0.2 µg/mL; in [4] (read-out: MIC), 12.5 µg/mL (≈ 18.9 µM); in series [5] (read-out: MIC), greater than 100 µg/mL; in series [6] (read-out: MIC), greater than 100 µg/mL; in series [7] (read-out: MIC) it was greater than 100 µg/mL. In addition, the MIC in series [9] (setting [22]) is 1.56 µg/mL (≈ 2.36 µM); in series [10] (read-out: MIC), 12.5 µg/mL (≈ 18.9 µM); in series [12] (setting [23]), greater than 100 µg/mL; in series [13] (read-out: MIC), 1.56 µg/mL (≈ 2.36 µM); in series [14] (read-out: MIC), greater than 100 µg/mL; in [15] (read-out: MIC), greater than 100 µg/mL. The MIC in series [16] is 3.12 µg/mL (≈ 4.74 µM); in series [18] (setting [24]), greater than 100 µg/mL. Moreover, in series [8] (setting [21]), the “Growth Inhibitory Effect IC50” value is listed as 10^-2 μg/ml. Moreover, in series [11], the Solubility in chloroform entry is “soluble”. Moreover, the Solubility in methanol result in [11] is reported as “freely soluble”. In series [11], the Solubility in n-hexane result is listed as “slightly soluble”. Also, the antitumor activity entry in series [17] is “antitumor activity”. The “Activity (T/C), ratio of median survival time of treated group to control group” value (shortened to “Activity (T/C), ratio”) in series [19] (0.25 mg/kg/day) is 148%; in [19] (0.5 mg/kg/day) it was 167%; in series [19] (1.0 mg/kg/day), 205%.
Regarding `CC(O)CC(OC(C)CO)OC1C(N)CC(OC2CC(O)(C(C)O)Cc3c(O)c4c(c(O)c32)C(=O)c2c(O)cccc2C4=O)OC1C` (centres unmarked) [FA-1180 B1], the “ability to inhibit the growth” value in series [1] is given as “strong ability to inhibit the growth of Gram-positive bacteria”. Moreover, the MIC in [2] is listed as greater than 100 ppm; in series [3], 0.4 ppm; in [4] it was 50 ppm; in series [5], greater than 100 ppm; in series [6] it was greater than 100 ppm; in [7] it was greater than 100 ppm. Further, the MIC in [9] was 3.125 ppm; in series [10], 50 ppm; in [12] (Brain heart infusion agar), greater than 100 ppm; in series [13], 12.5 ppm; in [14], greater than 100 ppm; in series [15], greater than 100 ppm. Moreover, the MIC in series [18] (Brain heart infusion agar) was greater than 100 ppm. Also, the “Growth Inhibitory Effect IC50” value in [8] (setting [21]) is 10^-2 μg/ml. Moreover, the antitumor activity result in [17] was “antitumor activity”. The results for the “Activity (T/C), ratio” value in [19] (0.25 mg/kg/day), in series [19] (0.5 mg/kg/day) and in series [19] (1.0 mg/kg/day) were 151%, 168% and 179%, respectively.
In the case of `CC(=O)C1(O)Cc2c(O)c3c(c(O)c2C(OC2CC(N)C(OC(CC(C)O)OC(C)CO)C(C)O2)C1)C(=O)c1c(O)cccc1C3=O` (centres unmarked) [FA-1180 A1], the “ability to inhibit the growth” value in [1] is “strong ability to inhibit the growth of Gram-positive bacteria”. Further, the MIC is reported as greater than 100 ppm in [2]; less than 0.2 ppm in series [3]; 12.5 ppm in [4]; greater than 100 ppm in series [5]; greater than 100 ppm in series [6]; greater than 100 ppm in [7]. In addition, the MIC in [9] is 1.56 ppm; in series [10], 12.5 ppm; in [12] (Brain heart infusion agar) it was greater than 100 ppm; in [13], 1.56 ppm; in series [14], greater than 100 ppm; in series [15], greater than 100 ppm. In series [18] (Brain heart infusion agar), the MIC is listed as greater than 100 ppm. In [8] (setting [21]), the “Growth Inhibitory Effect IC50” value is reported as 10^-3 μg/ml. Besides, the antitumor activity result in series [17] was “antitumor activity”.
On to `COc1cccc2c1C(=O)c1c(O)c3c(c(O)c1C2=O)C[C@@](O)(C(=O)CO)C[C@@H]3O[C@H]1C[C@H](N)[C@H](O)[C@H](C)O1` [Adriamycin hydrochloride, reference compound], for which, in series [8], the IC50 came to 0.01 µg/mL.
As to `CC(O)CC(OC(C)CO)OC1C(N)CC(OC2CC(O)(C(C)O)Cc3c(O)c4c(c(O)c32)C(=O)c2c(O)cccc2C4=O)OC1C` (centres unmarked) [FA-1180 B], the “ability to inhibit the growth” value in series [1] was “strong ability to inhibit the growth of Gram-positive bacteria”. Moreover, the MIC in series [2] (setting [20]) was greater than 100 µg/mL; in series [3] (read-out: MIC) it was 0.4 µg/mL (≈ 0.605 µM); in series [4] (read-out: MIC), 50 µg/mL (≈ 75.6 µM); in [5] (read-out: MIC) it was greater than 100 µg/mL; in series [6] (read-out: MIC) it was greater than 100 µg/mL; in series [7] (read-out: MIC), greater than 100 µg/mL. Also, the MIC in [9] (setting [22]) was 6.25 µg/mL (≈ 9.45 µM); in series [10] (read-out: MIC) it was 50 µg/mL (≈ 75.6 µM); in series [12] (setting [23]) it was greater than 100 µg/mL; in series [13] (read-out: MIC), 12.5 µg/mL (≈ 18.9 µM); in [14] (read-out: MIC) it was greater than 100 µg/mL; in [15] (read-out: MIC) it was greater than 100 µg/mL. The values for the MIC in [16] and in [18] (setting [24]) were 25 µg/mL (≈ 37.8 µM) and greater than 100 µg/mL, respectively. The half-maximal inhibitory concentration (IC50) in series [8] (setting [21]) worked out at 0.01 µg/mL (≈ 0.0151 µM). The Solubility in chloroform result in series [11] is given as “soluble”. The Solubility in methanol entry in series [11] was “freely soluble”. Also, in series [11], the Solubility in n-hexane result is listed as “slightly soluble”. Also, the antitumor activity result in series [17] was “antitumor activity”. Moreover, the “Activity (T/C), ratio” value in series [19] (0.25 mg/kg/day) was 143%; in series [19] (0.5 mg/kg/day) it was 162%; in series [19] (1.0 mg/kg/day) it was 190%.
For `O=c1[nH]cc(F)c(=O)[nH]1` [5-FU, reference compound], the “Activity (T/C), ratio” value in series [19] (20 mg/kg/day) is on record as 198%.

The values above are taken from patent US4387218A, “Anthracycline antibiotics FA-1180 B and B1, or salts thereof” (priority 1979, dated 1983).
